From ChEMBL document CHEMBL1128874 (Bioorg Med Chem Lett, 1995)

Test: Antagonism of calmodulin dependent cAMP Phosphodiesterase
Type: functional
Work on CC/C(=C(\c1ccc(I)cc1)c1ccc(OCCN2CCCC2)cc1)c1ccc(O)cc1 yielded an IC50 of 1.8 µM.
In the case of CC/C(=C(\c1ccc(I)cc1)c1ccc(OCCN2CCCC2)cc1)c1ccccc1 [IDOXIFENE], the IC50 is reported as 1.5 µM.
CC/C(=C(\c1ccc(I)cc1)c1ccc(OCCN2CCCC2)cc1)c1ccc(N)cc1 showed an IC50 of 2.6 µM.
CC/C(=C(/c1ccc(I)cc1)c1ccc(OCCN2CCCC2)cc1)c1ccc(O)cc1 showed an IC50 of 2.2 µM.
CC/C(=C(\c1ccc(I)cc1)c1ccc(OCCN2CCCC2)cc1)c1ccc(I)cc1 showed an IC50 of 5 µM.
